According to the SangsterLogP compilation:

Compound	logP
Oc1ccc(-c2nc3ccccc3s2)cc1I	2.22
Nc1ccc(-c2nc3ccc(Br)cc3s2)cc1I	4.11
Nc1ccc(-c2nc3ccccc3s2)cc1	1.98
Nc1ccc2nc(-c3ccc(O)cc3)sc2c1I	1.6
COCOc1ccc2nc(-c3ccc(N)c(I)c3)sc2c1	3.03
Nc1ccc(-c2nc3ccc([N+](=O)[O-])cc3s2)cc1I	3.33
COC(=O)c1ccc2nc(-c3ccc(N)c(I)c3)sc2c1	3.29
CNc1ccc(-c2nc3ccccc3s2)cc1I	3.9
CNc1ccc(-c2nc3ccc([N+](=O)[O-])cc3s2)cc1I	4.08
Oc1ccc(-c2nc3ccc(O)c(I)c3s2)cc1	1.01
CNc1ccc(-c2nc3ccc([N+](=O)[O-])cc3s2)cc1	2.96
CNc1ccc(-c2nc3ccc(Br)cc3s2)cc1I	4.86
Nc1ccc(-c2nc3ccccc3s2)cc1I	3.17

Continued, values first:

logP	Compound
1.76	COc1ccc(-c2nc3ccc(N)cc3s2)cc1
2.49	COc1ccc(-c2nc3ccc(O)c(I)c3s2)cc1
2.35	CNc1ccc(-c2nc3ccc(O)cc3s2)cc1I
1.87	COc1ccc2nc(-c3ccc(N)cc3)sc2c1
1.86	COCOc1ccc2nc(-c3ccc(N)cc3)sc2c1
2.31	COc1ccc2nc(-c3ccc(O)c(I)c3)sc2c1
2.58	CNc1ccc(-c2nc3ccc(OC)cc3s2)cc1
3.8	CNc1ccc(-c2nc3ccc(OC)cc3s2)cc1I
1.86	Oc1ccc(-c2nc3ccccc3s2)cc1
1.75	COc1ccc(-c2nc3ccc(O)cc3s2)cc1
2.95	COc1ccc(-c2nc3ccc(N)c(I)c3s2)cc1
3.64	CNc1ccc(-c2nc3ccc(Br)cc3s2)cc1
1.09	Oc1ccc2nc(-c3ccc(O)c(I)c3)sc2c1
2.21	Nc1ccc(-c2nc3ccc([N+](=O)[O-])cc3s2)cc1
3.08	COc1ccc2nc(-c3ccc(N)c(I)c3)sc2c1
1.65	Nc1ccc(-c2nc3ccc(O)cc3s2)cc1I
2.87	Nc1ccc(-c2nc3ccc(Br)cc3s2)cc1
1.8	COc1ccc2nc(-c3ccc(O)cc3)sc2c1
2.07	COC(=O)c1ccc2nc(-c3ccc(N)cc3)sc2c1
